Data as given in US6407071B1, “Method and composition for treating malignant cells” (Co-Enzyme Technology Ltd., priority 1998, dated 2002).
Several values for one entry are separate records, joined by “and”; a condition that tells them apart may be missing. Equal entries are not always repeated.

Assays:
[1] = test system: human tumor cells; assay: Oxidizing agents found toxic to human tumor cells; assay type: cell-based
[2] = test system: localized malignant melanomas; details: cited from earlier work
[3] = test system: prostate cancer; assay: Six month study of P.S.A. levels in prostate cancer patients: glyceraldehyde, Glycosole and the combination; assay type: in vivo, human; set-up: key to Patient dead (#): # Dead; P.S.A. Levels during 6 month from initiation of treatment, 1 mo. / P.S.A. Levels during 6 month from initiation of treatment, 2 mo. / P.S.A. Levels during 6 month from initiation of treatment, 3 mo. / P.S.A. Levels during 6 month from initiation of treatment, 4 mo. / P.S.A. Levels during 6 month from initiation of treatment, 5 mo. / P.S.A. Levels during 6 month from initiation of treatment, 6 mo.: unit not given here
Experimental: A six month study was conducted comparing the anti-cancer effect of Glycosole (Glyc., the glucuronide of para-methoxy-phenol), glyceraldehyde, and a combination of the two compounds. These compounds were administered to patients suffering from prostate cancer separately and together. All of the patients suffered from bone metastases and no longer responded to conventional hormone therapy. Patients were administered either 3 grams glyceraldehyde per day, 6 grams per day of Glycosole, or a combination of both agents.

[4] = test system: cancer cells; assay: Toxicity to cancer cells in vitro relative to para-methoxy phenol; assay type: cell-based; details: compared with para-methoxy phenol

Compound: N[C@@H](Cc1cc(O)c(O)cc1O)C(=O)O [6-hydroxydopa, 3,4,6-trihydroxyphenylalanine]
- Toxicity to human tumor cells [1]: toxic to human tumor cells

Compound: CCC(C)(C)c1ccc(O)cc1 [4-tert-amyl phenol]
- Toxicity to human tumor cells [1]: toxic to human tumor cells

Compound: NCCc1ccc(O)c(O)c1 [dopamine, 3,4-dihydroxyphenethylanine]
- Toxicity to human tumor cells [1]: toxic to human tumor cells

Compound: CCCOc1ccc(O)cc1 [4-propoxy phenol]
- Toxicity to human tumor cells [1]: toxic to human tumor cells

Compound: 4-benzomethoxy phenol
- Toxicity to human tumor cells [1]: toxic to human tumor cells

Compound: N[C@@H](Cc1ccc(O)cc1)C(=O)O [tyrosine]
- Toxicity to human tumor cells [1]: toxic to human tumor cells

Compound: COC(=O)c1cc(O)c(O)c(O)c1 [methyl gallate]
- Toxicity to human tumor cells [1]: toxic to human tumor cells

Compound: COc1ccc(O)cc1 [4-hydroxyanisole]
- Toxicity to human tumor cells [1]: toxic to human tumor cells
- Effect on localized malignant melanomas ([2]; intra-arterial infusion): underwent regression
- Therapeutic effect in malignant melanoma ([2]; intravenous administration): not therapeutically effective

Compound: Oc1cccc(O)c1 [resorcinol]
- Toxicity to human tumor cells [1]: toxic to human tumor cells

Compound: N[C@@H](Cc1ccc(O)c(O)c1)C(=O)O [L-3,4-dihydroxyphenylalanine]
- Toxicity to human tumor cells [1]: toxic to human tumor cells

Compound: Oc1ccc(O)cc1 [hydroquinone]
- Toxicity to human tumor cells [1]: toxic to human tumor cells

Compound: COc1ccc(O)c(C(C)(C)C)c1 [butylated hydroxyanisole]
- Toxicity to human tumor cells [1]: toxic to human tumor cells

Compound: O=CC(O)CO (stereo not shown) [Glycer Aldehyde, glyceraldehyde]
- P.S.A. Levels during 6 month from initiation of treatment, 1 mo. ([3]; 1 mo., single patients, bone metastases, glyceraldehyde 3 g/day, Glycosole 6 g/day or both): 760 and 190 and 2250 and 340 and 910 and 150
- P.S.A. Levels during 6 month from initiation of treatment, 2 mo. ([3]; 2 mo., single patients, glyceraldehyde 3 g/day, Glycosole 6 g/day or both): 680 and 180 and 1100 and 380 and 850 and 90
- P.S.A. Levels during 6 month from initiation of treatment, 3 mo. ([3]; 3 mo., single patients, glyceraldehyde 3 g/day, Glycosole 6 g/day or both): 600 and 150 and 1000 and 310 and 740 and 80
- P.S.A. Levels during 6 month from initiation of treatment, 4 mo. ([3]; 4 mo., single patients, glyceraldehyde 3 g/day, Glycosole 6 g/day or both): 580 and 145 and 980 and 280 and 760 and 80
- P.S.A. Levels during 6 month from initiation of treatment, 5 mo. ([3]; 5 mo., single patients, glyceraldehyde 3 g/day, Glycosole 6 g/day or both): 540 and 140 and 220 and 680 and 64
- P.S.A. Levels during 6 month from initiation of treatment, 6 mo. ([3]; 6 mo., single patients, glyceraldehyde 3 g/day, Glycosole 6 g/day or both): 420 and 100 and 180 and 360 and 60
- P.S.A. Levels during 6 month from initiation of treatment, 10 mo. ([3]; 10 mo., single patients): 380 and 480 and 600
- P.S.A. Levels during 6 month from initiation of treatment, 11 mo. ([3]; 11 mo., single patients): 920 and 700
- P.S.A. Levels during 6 month from initiation of treatment, 12 mo. ([3]; 12 mo., single patients): 846
- Patient dead (#) ([3]; marked in column 5 mo.): #
- Patient dead (#) ([3]; marked in column 11 mo.): #
- Patient dead (#) ([3]; marked in column 12 mo.): #
- Response of patients to the treatment ([3]; prostate cancer with bone metastases, 3 grams glyceraldehyde per day, 6 grams per day of Glycosole, or both): None of the patients administered glyceraldehyde alone responded

Compound: CCC(C)(C)c1ccc(O[C@@H]2O[C@H](C(=O)O)[C@@H](O)[C@H](O)[C@H]2O)cc1 [4-tert-amyl phenyl glucuronide]
- Toxicity to cancer cells in vitro relative to para-methoxy phenol [4]: 5.5 times
